Holding throughout (type): cell-based, human
The test system of experiment [1] is MHC-I, PSMB8, PSMB9, and PSMB10. In words: Immunoblot of IFNG-induced MHC-I and immunoproteasome protein in MB135 myoblasts treated with inhibitors. Particulars: MB135 myoblasts without DUX4 induction, agent then IFNG 16 h; 4EGI-1 at 50 uM. Here is the method: To test if mTOR inactivation was sufficient to block MHC-I and immunoproteasome protein levels in the absence of DUX4, parental MB135 myoblasts were treated with mTOR inhibitors everolimus or Torin2. Everolimus is a second-generation rapamycin analog with binding specificity for mTORC1. […] To further validate the role of 4EBP1 in blocking MHC-I and immunoproteasome protein expression, MB135 cells were treated with 4EGI-1, a small molecule that pharmacologically mimics 4EBP function and inhibits eIF4E.
(§1) Protein samples were harvested in RIPA buffer [150 mM NaCl, 1% NP-40, 0.5% Na-deocycholate, 1% SDS, 25 mM Tris-HCl pH7.4] supplemented with protease and phosphatase inhibitor tablets (Pierce), followed by sonication in Diagenode Bioruptor. Lysate was cleared by centrifugation at 16000×g and quantified using a Pierce BCA assay (Thermo Fisher Scientific). Samples were run on NuPAGE precast polyacrylamide gels (Invitrogen) and transferred to PVDF membrane. Membranes were blocked in PBS containing 0.1% Tween-20 and 5% non-fat dry milk before overnight incubation at 4° C. with primary antibodies (see resource table for a list of antibodies used in this study). Membranes were incubated with horseradish peroxidase-conjugated secondary antibodies for 1 hour at room temperature and SuperSignal chemiluminescent substrate (Thermo Scientific) was used for detection on film with a Mini-medical 90 processor. Membranes were stripped with Restore Western Blot Stripping Buffer (Pierce).

For experiment [2], the system named is eIF2-alpha, RPS6, 4EBP1, eIF4E, eEF2. Put plainly: Immunoblot of translational regulators. Particulars: parental MB135 myoblasts treated with mTOR inhibitor. Here is the method: as §1
Experiment [3] concerns interferon-stimulated genes IFIH1, ISG20, CXCL9, and CD74. In words: IFNG induction of interferon-stimulated genes, RT-qPCR in MB135 cells with doxycycline-inducible transgenes. Particulars: MB135 cells, doxycycline-induced transgene, continuous protocol, IFNG 16 h. Here is the method:
(§2) All myoblast experiments were conducted in immortalized MB135 or MB200 myoblast cell lines (isolated from a control or FSHD2 subject, respectively cultured in Ham's F-10 Nutrient Mix (Gibco) supplemented with 15% fetal bovine serum (Hyclone), 100 U/100 μg/ml penicillin/streptomycin (Gibco), 1 μM dexamethasone (Sigma), and 10 ng/ml recombinant human basic fibroblast growth factor (PeproTech). To differentiate the myoblasts to myotubes, media was changed to DMEM supplemented with 10 μg/ml insulin (Sigma) and 10 μg/ml transferrin (Sigma). Cell lines containing doxycycline-inducible transgenes were additionally cultured with 2 μg/mL puromycin (Sigma). Transgenes were induced with 1 μg/mL of doxycycline (Sigma) for 4 hours prior to other treatments for a total of 20 hrs. The Kitra-SRS cells (RRID:CVCL_YI69) were provided by Dr. H. Otani and Osaka University (Nakai et al., 2019) and were cultured in DMEM supplemented with 10% fetal bovine serum (Hyclone) and 100 U/100 μg/ml penicillin/streptomycin (Gibco). Biological replicates consisted of independent but parallel experiments, such as simultaneously stimulating three cell culture plates with IFNγ. Technical replicates consisted of repeat measurements of the same biological sample, such as loading the same biological sample in triplicate for analysis by RT-qPCR.
(§3) Myoblasts were transfected with either (final concentrations) 10 μM 2′,3′-cGAMP (Sigma Aldrich), 2 μg/mL poly(I:C) (Invitrogen), or 1 μg/mL 3′ppp-dsRNA RIG-I ligand (Dan Stetson Lab, UW) using Lipofectamine 2000 according to manufacturer's protocol, or were stimulated with 1000U IFNβ (PeproTech) or 200 ng/ml IFNγ (R+D Systems) by addition directly to cell culture medium. After 16 hours of immune stimulation, RNA was collected from cells using the NucleoSpin RNA Kit (Macherey-Nagel) according to manufacturer's instructions. RNA samples were quantified by nanodrop and 1 μg of RNA per sample was treated with DNase I Amplification Grade (Thermo Fisher), and then synthesized into cDNA using the Superscript IV First-Strand Synthesis System, including oligo dT primers (Invitrogen). qPCR was run in 384-well plates on an Applied Biosystems QuantStudio 6 Flex Real-Time PCR System (ABI) and analyzed in Microsoft Excel.

The subject of a further experiment is ZSCAN4. In words: Activation of DUX4 target gene ZSCAN4, RT-qPCR. Particulars: MB135 cells ± doxycycline. Here is the method: as §2, §3
Experiment [4] relates to HLA-A, HLA-B, HLA-C, PSMB8, PSMB9, PSMB10 mRNA. Put plainly: mRNA levels of MHC-I and immunoproteasome genes (RT-PCR, RNA-seq). Particulars: MB135 cells, 50 uM, data not shown. Here is the method: as §3
Total RNA was isolated using the NucleoSpin RNA kit (Machery-Nagel) or Direct-zol RNA Mini-Prep Kit (Zymo Research) according to manufacturer's instructions. RNA-seq libraries were prepared using the Illumina TruSeq RNA Sample Prep v2 Kit and sequenced using 50 bp paired-end sequencing on the Illumina NextSeq platform by the Fred Hutchinson Cancer Center Genomics Core.

“Also recorded” adds a separate entry of the source.

As for `Nc1ccc(-c2ccc3ncc4ccc(=O)n(-c5cccc(C(F)(F)F)c5)c4c3c2)cn1` [Torin2, reference compound], the “effect on IFNG-induced MHC-I and immunoproteasome protein in the absence of DUX4” value (from here on “effect … of DUX4”) in experiment [1] is “sufficient to post-transcriptionally repress IFNG-induced MHC-I, PSMB8, PSMB9, and PSMB10 protein expression”. Besides, in experiment [2], the “phosphorylation of 4EBP1 and eIF4E” value is “complete hypophosphorylation of 4EBP1 and reduced eIF4E phosphorylation”; the “phosphorylation of RPS6” value is listed as “blocked phosphorylation of RPS6”.

Consider `COc1ccc(C[C@H](NC(=O)[C@H](C)NC(=O)CN2CCOCC2)C(=O)N[C@@H](Cc2ccccc2)C(=O)C2(C)CO2)cc1` (stereo in doubt) [ONX-0914], for which, in experiment [1], the “effect … of DUX4” value is listed as “did not reduce IFNG-induced MHC-I levels”.

For the compound “iDUX4dL2: DUX4 transgene deleting the second (L)LxxL(L) motif, SEQ ID NO:100 (PCGLLLDELLASPEFLQQAQPLLETEAPGELEASEEAASLEAPLSEEYRA)”, in experiment [3], the “suppression of IFNG induction of ISGs (IFIH1, ISG20, CXCL9, CD74)” value is reported as “lost the ability to suppress the panel of ISGs”. Also, the “transcriptional activation of DUX4 target gene ZSCAN4” value with ZSCAN4 was “failed to activate the DUX4 target ZSCAN4”.

With `CC(C)C[C@H](NC(=O)[C@H](CCc1ccccc1)NC(=O)CN1CCOCC1)C(=O)N[C@@H](Cc1ccccc1)C(=O)N[C@@H](CC(C)C)C(=O)[C@@]1(C)CO1` [Carfilzomib], the “effect … of DUX4” value in experiment [1] is “abrogated the accumulation of MHC-I following IFNG treatment”.

Take “iDUX4mL1: DUX4 transgene mutating the first (L)LxxL(L) motif, SEQ ID NO: 99 (PCGLLAAEAAASPEFLQQAQPLLETEAPGELEASEEAASLEAPLSEEEYRALLEEL)”: the “suppression of IFNG induction of ISGs (IFIH1, ISG20, CXCL9, CD74)” value in experiment [3] is “partial activity, suppressing 3 of the 4 ISGs”. The “transcriptional activation of DUX4 target gene ZSCAN4” value with ZSCAN4 is “failed to activate the DUX4 target ZSCAN4”.

Consider `CO[C@H]1C[C@@H]2CC[C@@H](C)[C@@](O)(O2)C(=O)C(=O)N2CCCC[C@H]2C(=O)O[C@H]([C@H](C)C[C@@H]2CC[C@@H](OCCO)[C@H](OC)C2)CC(=O)[C@H](C)/C=C(\C)[C@@H](O)[C@@H](OC)C(=O)[C@H](C)C[C@H](C)/C=C/C=C/C=C/1C` [everolimus, reference compound], for which the “effect … of DUX4” value in experiment [1] is reported as “did not block MHC-I or immunoproteasome protein expression”. For the same compound, in experiment [2], the “phosphorylation of 4EBP1 and eIF4E” value is 4EBP1 phosphorylation and eIF4E phosphorylation remained largely unaltered; the “phosphorylation of RPS6” value is listed as “blocked S6K phosphorylation of RPS6”.

Consider `O=C(O)C(Cc1ccccc1[N+](=O)[O-])=NNc1nc(-c2ccc(Cl)c(Cl)c2)cs1` (mixture of isomers) [4EGI-1], for which the “effect … of DUX4” value in experiment [1] is “suppressed IFNG-induced MHC-I and immunoproteasome subunits at the protein level; also recorded: suppressed IFN-induced MHC-I and iProteasome subunits at the protein level”. For the same compound, in experiment [4], the “effect on mRNA levels of MHC-I and iProteasome subunits” value was “had no effect on mRNA levels”.

The values are drawn from US20250339531A1, “DUX4 POLYPEPTIDES AND NUCLEIC ACIDS FOR TREATING INFLAMMATORY AND AUTOIMMUNE CONDITIONS” (Fred Hutchinson Cancer Center, priority 2021, published 2025).
